According to patent publication US20040220094A1, “Inverse agonist and agonist peptides that stimulate/inhibit hair growth” (priority 2003, published 2004):
Blank lines part the entries; values can stand above or below the molecule they belong to. Non-standard residues stand in square brackets, D forms with d. Residues, ends and D or L forms follow the SMILES beside them. No end group written: not given here. *: point of attachment. Hydrocinnamoyl = O=C(CCc1ccccc1)*; Nle = CCCC[C@H](N)C(=O)O

Tests used:
PTH1R receptor [1] = target: T1, PTH1R receptor (Homo sapiens, UniProt Q03431); assay: potency of inverse agonist peptides (assay not specified)
T1 sequence (Q03431 27-593): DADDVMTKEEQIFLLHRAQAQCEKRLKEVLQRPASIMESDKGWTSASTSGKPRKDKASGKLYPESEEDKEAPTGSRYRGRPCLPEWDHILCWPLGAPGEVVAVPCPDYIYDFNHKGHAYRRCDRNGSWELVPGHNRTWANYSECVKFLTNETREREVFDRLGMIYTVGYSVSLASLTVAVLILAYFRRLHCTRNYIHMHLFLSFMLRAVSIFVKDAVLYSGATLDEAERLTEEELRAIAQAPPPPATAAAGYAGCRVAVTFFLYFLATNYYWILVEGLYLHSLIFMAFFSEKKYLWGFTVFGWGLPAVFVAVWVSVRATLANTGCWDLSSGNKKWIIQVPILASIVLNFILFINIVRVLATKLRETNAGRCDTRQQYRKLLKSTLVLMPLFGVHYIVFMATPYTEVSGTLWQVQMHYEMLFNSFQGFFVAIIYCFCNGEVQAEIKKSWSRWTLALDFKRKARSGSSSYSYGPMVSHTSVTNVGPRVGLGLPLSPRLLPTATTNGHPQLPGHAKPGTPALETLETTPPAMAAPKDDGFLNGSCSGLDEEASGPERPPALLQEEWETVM

PTH1R receptor [2] = target: T1, PTH1R receptor; assay: bone-based assays; format: binding; conditions: bon-based assay
PTH1R receptor [3] = target: T1, PTH1R receptor; assay: kidney-based assays; format: binding; conditions: kidney-based assay
[4] = target: T2, Type I PTH/PTHrP receptor (PTH1R receptor); assay: kidney-based assay
T2 chain: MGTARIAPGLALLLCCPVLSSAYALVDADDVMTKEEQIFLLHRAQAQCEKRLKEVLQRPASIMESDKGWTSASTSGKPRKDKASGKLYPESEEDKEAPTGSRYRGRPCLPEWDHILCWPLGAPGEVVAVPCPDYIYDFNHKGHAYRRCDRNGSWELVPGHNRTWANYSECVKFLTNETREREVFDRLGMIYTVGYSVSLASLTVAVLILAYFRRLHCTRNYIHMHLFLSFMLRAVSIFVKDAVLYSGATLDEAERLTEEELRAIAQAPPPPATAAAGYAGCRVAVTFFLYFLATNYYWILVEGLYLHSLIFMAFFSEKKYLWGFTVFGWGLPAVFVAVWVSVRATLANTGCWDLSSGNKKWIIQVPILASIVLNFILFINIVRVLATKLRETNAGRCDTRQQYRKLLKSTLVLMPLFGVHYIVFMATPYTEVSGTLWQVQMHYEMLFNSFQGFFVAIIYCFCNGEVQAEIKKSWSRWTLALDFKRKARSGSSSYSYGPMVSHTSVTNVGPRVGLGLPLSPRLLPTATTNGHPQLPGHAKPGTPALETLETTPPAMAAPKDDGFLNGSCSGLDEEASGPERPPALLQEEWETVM

[5] = target: T2, Type I PTH/PTHrP receptor (PTH1R …); assay: bone-based assay

Molecule: Leu-Leu-His-Asn-Leu-Gly-Lys-Ser-Ile-Gln-Asp-Leu-Arg-Arg-Arg-Phe-Phe-Leu-His-His-Leu-Ile-Ala-Glu-Ile-His-Thr-Ala-NH2 (LLHNLGKSIQDLRRRFFLHHLIAEIHTA-NH2)
fold more potent than PTHrP 7-34 (PTH1R receptor [1]; relative to PTHrP 7-34): (which is 23 fold more potent than PTHrP 7-34);

B1: Phe-Nle-His-Asn-Leu-Gly-Lys-(epsilon-3-phenylpropanoyl)-His-Leu-Ser-Ser-Nle-Glu-Arg-Val-Glu-Trp-Leu-Arg-Lys-Lys-Leu-Gln-Asp-Val-His-Asn-Tyr (peptide)
peptide: FXHNLGKHLSSXERVEWLRKKLQDVHNY
modifications: Nle (norleucine) at peptide positions 2 and 12 (written X in letters); Lys at peptide position 7 carries epsilon-3-phenylpropanoyl
Ki [4]: 73 nM
Ki [5]: 3.5 nM

Continued, values first:

potency (PTH1R receptor [1]): increased potency
Molecule: Leu-Leu-His-Asp-Leu-D-Trp-Lys(cyclization)-Ser-Ile-Gln-Asp(cyclization)-Leu-Arg-Arg-Arg-Phe-Phe-Leu-His-His-Leu-Ile-Ala-Glu-Ile-His-Thr-Ala-NH2

Ki (PTH1R receptor [2]): 3.5 nM
Kd (PTH1R receptor [2]; read-out: Kbinding): 9 nM
Ki (PTH1R receptor [3]): 73 nM
Kd (PTH1R receptor [3]; read-out: Kbinding): 4 nM
Molecule: CCCC[C@H](NC(=O)[C@H](CO)NC(=O)[C@H](CO)NC(=O)[C@H](CC(C)C)NC(=O)[C@H](Cc1c[nH]cn1)NC(=O)[C@H](CCCCNC(=O)CCc1ccccc1)NC(=O)CNC(=O)[C@H](CC(C)C)NC(=O)[C@H](CC(N)=O)NC(=O)[C@H](Cc1c[nH]cn1)NC(=O)[C@H](CCCC)NC(=O)[C@@H](N)Cc1ccccc1)C(=O)N[C@@H](CCC(=O)O)C(=O)N[C@@H](CCCNC(=N)N)C(=O)N[C@H](C(=O)N[C@@H](CCC(=O)O)C(=O)N[C@@H](Cc1c[nH]c2ccccc12)C(=O)N[C@@H](CC(C)C)C(=O)N[C@@H](CCCNC(=N)N)C(=O)N[C@@H](CCCCN)C(=O)N[C@@H](CCCCN)C(=O)N[C@@H](CC(C)C)C(=O)N[C@@H](CCC(N)=O)C(=O)N[C@@H](CC(=O)O)C(=O)N[C@H](C(=O)N[C@@H](Cc1c[nH]cn1)C(=O)N[C@@H](CC(N)=O)C(=O)N[C@@H](Cc1ccc(O)cc1)C(=O)O)C(C)C)C(C)C (H-F[Nle]HNLGK(Hydrocinnamoyl)HLSS[Nle]ERVEWLRKKLQDVHNY-OH; N-terminus and C-terminus assumed)
